Test results published in patent US9073895B2 (Boehringer Ingelheim International GmbH, priority 2010, dated 2015).

What was measured:
[1] = target: T1, recombinant human FLAP protein (Homo sapiens, UniProt P20292); test: FLAP binding assay (SPA, displacement of [125I]L-691,831); settings: membranes of sf9 cells expressing human FLAP, [125I]L-691,831 probe; read-out: hFLAP binding IC50
T1 construct: made in house; host or cells: Sf9 insect cells (membrane fraction, 100,000 x g pellet)
T1 sequence (P20292 1-161): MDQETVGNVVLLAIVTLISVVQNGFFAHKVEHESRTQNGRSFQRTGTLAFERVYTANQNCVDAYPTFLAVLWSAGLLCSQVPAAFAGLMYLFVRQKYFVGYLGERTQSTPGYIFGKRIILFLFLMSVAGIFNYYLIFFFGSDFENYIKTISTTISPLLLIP
In short: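 Membranes from sf9 cells expressing human FLAP (5 μg/well) were bound to WGA SPA beads (200 μg/well). Nonspecific binding was defined with 10 μM unlabelled L-691,831.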

[2] = tested on: synthesis of LTB4 in human whole blood; test: Human whole blood LTB4 production inhibition assay; assay type: cell-based; settings: heparinized human whole blood, calcimycin 20 μM, plasma LTB4; read-out: HuWB IC50
In short: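 Heparinized human whole blood preincubated with compound 15 min at 37 °C, then stimulated with calcimycin (20 μM final) for 30 min at 37 °C. Plasma LTB4 measured after low-speed centrifugation by antibody-based homogeneous time-resolved fluorescence.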

IC50 [1] [nM]	IC50 [2] [nM]	Structure (SMILES)
60	> 3000	COC(=O)c1cccc(NC(=O)C2(c3ccc(-c4cnc(N)nc4)cc3)CCOCC2)c1 [Example 80, methyl 3-[({4-[4-(2-aminopyrimidin-5-yl)phenyl]tetrahydro-2H-pyran-4-yl}carbonyl)amino]benzoate]
18.7	412	Cc1ccc2cc(NC(=O)C3(c4ccc(-c5cnc(N)nc5)cc4)CCOCC3)ccc2n1 [Example 86, 4-[4-(2-aminopyrimidin-5-yl)phenyl]-N-(2-methylquinolin-6-yl)tetrahydro-2H-pyran-4-carboxamide]
4	192	CN(C)S(=O)(=O)c1ccc(NC(=O)C2(c3ccc(-c4cnc(N)nc4)cc3)CCC2)cc1 [Example 87, 1-[4-(2-aminopyrimidin-5-yl)phenyl]-N-[4-(dimethylsulfamoyl)phenyl] cyclobutanecarboxamide]
5.65	278	Nc1ncc(-c2ccc(C3(C(=O)Nc4ccc(S(=O)(=O)N5CCOCC5)cc4)CCC3)cc2)cn1 [Example 88, 1-[4-(2-aminopyrimidin-5-yl)phenyl]-N-[4-(mopholin-4-ylsulfonyl)phenyl]cyclobutane-carboxamide]
8.13	202	CS(=O)(=O)c1ccc(NC(=O)C2(c3ccc(-c4cnc(N)nc4)cc3)CCC2)cn1 [Example 89, 1-[4-(2-aminopyrimidin-5-yl)phenyl]-N-[6-(methylsulfonyl)pyridin-3-yl]cyclobutanecarboxamide]
31.5	2080	Cc1nc(-c2ccc(NC(=O)C(c3ccc(-c4cnc(N)nc4)cc3)C(C)(C)C)nc2)cs1 (stereo not shown) [Example 90, 2-[4-(2-aminopyrimidin-5-yl)phenyl]-3,3-dimethyl-N-[5-(2-methyl-1,3-thiazol-4-yl)pyridin-2-yl]butanamide]
65	857	N#Cc1ccc(NC(=O)C2(c3ccc(-c4cnc(N)nc4)nc3)CCC2)nc1 [Example 94, 1-[6-(2-aminopyrimidin-5-yl)pyridin-3-yl]-N-(5-cyanopyridin-2-yl)cyclobutanecarboxamide]
2.35	202	COC(=O)c1ccc(NC(=O)C2(c3ccc(-c4cnc(N)nc4)cc3)CCC2)nc1 [Example 95, methyl 6-[({1-[4-(2-aminopyrimidin-5-yl)phenyl]cyclobuyl}carbonyl)amino]pyridine-3-carboxylate]
12.2	236	N#Cc1ccc(NC(=O)C2(c3ccc(-c4cnc(N)nc4)nc3)CCC2)cc1 [Example 98, 1-[6-(2-aminopyrimidin-5-yl)pyridin-3-yl]-N-(4-cyanophenyl)cyclobutane-carboxamide]
1.85	184	Cc1noc(-c2ccc(NC(=O)C3(c4ccc(-c5cnc(N)nc5)cc4)CCC3)nc2)n1 [Example 100, 1-[4-(2-aminopyrimidin-5-yl)phenyl]-N-[5-(3-methyl-1,2,4-oxadiazol-5-yl)pyridin-2-yl]cyclobutanecarboxamide]
87	1100	CS(=O)(=O)c1ccc(NC(=O)C2(c3ccc(-c4cnc(N)nc4)cn3)CCC2)cc1 [Example 107, 1-[5-(2-aminopyrimidin-5-yl)pyridin-2-yl]-N-[4-(methylsulfonyl)phenyl]cyclobutane-carboxamide]
120	1100	Cn1cc(NC(=O)C2(c3ccc(-c4cnc(N)nc4)cc3)CCC2)cn1 [Example 110, 1-[4-(2-aminopyrimidin-5-yl)phenyl]-N-(1-methyl-1H-pyrazol-4-yl)cyclobutanecarboxamide]
230	2060	COc1cncc(-c2ccc(C(C)(C(=O)Nc3ccc(-c4csc(C)n4)cc3)C(C)C)cc2)c1 (stereo not shown) [Example 112, 2-[4-(5-methoxypyridin-3-yl)phenyl]-2,3-dimethyl-N-[4-(2-methyl-1,3-thiazol-4-yl)phenyl]butanamide]
390	10400	COc1cncc(-c2ccc(C(C)(C(=O)Nc3cccc(-c4csc(C)n4)c3)C(C)C)cc2)c1 (stereo not shown) [Example 113, 2-[4-(5-methoxypyridin-3-yl)phenyl]-2,3-dimethyl-N-[3-(2-methyl-1,3-thiazol-4-yl)phenyl]butanamide]
290	> 20000	COc1cncc(-c2ccc(C(C)(C(=O)Nc3ccc(C)nn3)C(C)C)cc2)c1 (stereo not shown) [Example 114]

Further lines, the compound ahead of its results:

Structure (SMILES)	IC50 [1] [nM]	IC50 [2] [nM]
N#Cc1ccnc(NC(=O)C2(c3ccc(-c4cnc(N)nc4)cc3)CCOCC2)c1 [Example 79, 4-[4-(2-aminopyrimidin-5-yl)phenyl]-N-(4-cyanopyridin-2-yl)tetrahydro-2H-pyran-4-carboxamide]	53.5	> 3000
Nc1ncc(-c2ccc(C3(C(=O)Nc4cc(C(F)(F)F)ccc4N4CCOCC4)CCOCC3)cc2)cn1 [Example 81, 4-[4-(2-aminopyrimidin-5-yl)phenyl]-N-[2-(morpholin-4-yl)-5-(trifluoromethyl)phenyl] tetrahydro-2H-pyran-4-carboxamide]	54	> 3000
Nc1ncc(-c2ccc(C3(C(=O)Nc4cc5ccccc5cn4)CCOCC3)cc2)cn1 [Example 82, 4-[4-(2-aminopyrimidin-5-yl)phenyl]-N-(isoquinolin-3-yl)tetrahydro-2H-pyran-4-carboxamide]	10.5	2780
Nc1ncc(-c2ccc(C3(C(=O)Nc4ccc(C(F)(F)F)c(F)c4)CCOCC3)cc2)cn1 [Example 83, 4-[4-(2-aminopyrimidin-5-yl)phenyl]-N-[3-fluoro-4-(trifluoromethyl)phenyl] tetrahydro-2H-pyran-4-carboxamide]	14.5	1060
Nc1ncc(-c2ccc(C3(C(=O)Nc4ccc(OCc5ccccc5)cc4)CCOCC3)cc2)cn1 [Example 85, 4-[4-(2-aminopyrimidin-5-yl)phenyl]-N-[4-(benzyloxy)phenyl]tetrahydro-2H-pyran-4-carboxamide]	12.5	849
N#Cc1ccc(NC(=O)C2(c3ccc(-c4cnc(N)nc4)nc3)CCC2)cc1Cl [Example 91, 1-[6-(2-aminopyrimidin-5-yl)pyridin-3-yl]-N-(3-chloro-4-cyanophenyl)cyclobutane-carboxamide]	5.45	240
Nc1ncc(-c2ccc(C3(C(=O)Nc4ccc5ncsc5c4)CCC3)cn2)cn1 [Example 92, 1-[6-(2-aminopyrimidin-5-yl)pyridin-3-yl]-N-(1,3-benzothiazol-6-yl)cyclobutanecarboxamide]	15.5	718
NC(=O)c1ccc(NC(=O)C2(c3ccc(-c4cnc(N)nc4)cc3)CCC2)nc1 [Example 93, 6-[({1-[4-(2-aminopyrimidin-5-yl)phenyl]cyclobutyl}carbonyl)amino]pyridine-3-carboxamide]	2.05	312
COC(=O)c1cc(NC(=O)C2(c3ccc(-c4cnc(N)nc4)cc3)CCC2)ccc1O [Example 97, methyl 5-[({1-[4-(2-aminopyrimidin-5-yl)phenyl]cyclobutyl}carbonyl)amino]-2-hydroxybenzoate]	4.85	4100
CS(=O)(=O)c1ccc(NC(=O)C2(c3ccc(-c4cnc(N)nc4)nc3)CCC2)cc1 [Example 99, 1-[6-(2-aminopyrimidin-5-yl)pyridin-3-yl]-N-[4-(methylsulfonyl)phenyl]cyclobutane-carboxamide]	45.5	570
Nc1ncc(-c2ccc(C3(C(=O)Nc4ccc(-c5ncn[nH]5)cn4)CCC3)cc2)cn1 [Example 102, 1-[4-(2-aminopyrimidin-5-yl)phenyl]-N-[5-(1H-1,2,4-triazol-5-yl)pyridin-2-yl]cyclobutanecarboxamide]	2.05	330
Cn1ncnc1-c1ccc(NC(=O)C2(c3ccc(-c4cnc(N)nc4)cc3)CCC2)nc1 [Example 103, 1-[4-(2-aminopyrimidin-5-yl)phenyl]-N-[5-(1-methyl-1H-1,2,4-triazol-5-yl)pyridin-2-yl]cyclobutanecarboxamide]	4.1	102
Nc1ncc(-c2ccc(C3(C(=O)Nc4ccc(-c5cn[nH]c5)cn4)CCC3)cc2)cn1 [Example 104, 1-[4-(2-aminopyrimidin-5-yl)phenyl]-N-[5-(1H-pyrazol-4-yl)pyridin-2-yl]cyclobutanecarboxamide]	1.95	155
Cn1nccc1-c1ccc(NC(=O)C2(c3ccc(-c4cnc(N)nc4)cc3)CCC2)nc1 [Example 106, 1-[4-(2-aminopyrimidin-5-yl)phenyl]-N-[5-(1-methyl-1H-pyrazol-5-yl)pyridin-2-yl]cyclobutanecarboxamide]	3	195
N=C(N)NC(=O)c1ccc(NC(=O)C2(c3ccc(-c4cnc(N)nc4)cc3)CCC2)nc1 [Example 108, 6-[({1-[4-(2-aminopyrimidin-5-yl)phenyl]cyclobutyl}carbonyl)amino]-N-carbamimidoylpyridine-3-carboxamide]	2	1900
Cn1cc(-c2ccc(NC(=O)C3(c4ccc(-c5cnc(N)nc5)cn4)CCC3)nc2)cn1 [Example 109, 1-[5-(2-aminopyrimidin-5-yl)pyridin-2-yl]-N-[5-(1-methyl-1H-pyrazol-4-yl)pyridin-2-yl]cyclobutanecarboxamide]	9.4	2100
COc1cncc(-c2ccc(C(C)(C(=O)Nc3ccc(OCc4ccccn4)cc3)C(C)C)cc2)c1 (stereo not shown) [Example 111]	180	2380
